# From patent publication US12486267B2, “Imidazo[1,2-A]pyridine and [1,2,4]triazolo[1,5-A]pyridine derivatives as TLR9 inhibitors for the treatment of fibrosis” (BRISTOL-MYERS SQUIBB COMPANY, priority 2020, dated 2025)
# Target: T1, human TLR9 (Homo sapiens, UniProt Q9NR96)
# T1 sequence (Q9NR96 26-1032): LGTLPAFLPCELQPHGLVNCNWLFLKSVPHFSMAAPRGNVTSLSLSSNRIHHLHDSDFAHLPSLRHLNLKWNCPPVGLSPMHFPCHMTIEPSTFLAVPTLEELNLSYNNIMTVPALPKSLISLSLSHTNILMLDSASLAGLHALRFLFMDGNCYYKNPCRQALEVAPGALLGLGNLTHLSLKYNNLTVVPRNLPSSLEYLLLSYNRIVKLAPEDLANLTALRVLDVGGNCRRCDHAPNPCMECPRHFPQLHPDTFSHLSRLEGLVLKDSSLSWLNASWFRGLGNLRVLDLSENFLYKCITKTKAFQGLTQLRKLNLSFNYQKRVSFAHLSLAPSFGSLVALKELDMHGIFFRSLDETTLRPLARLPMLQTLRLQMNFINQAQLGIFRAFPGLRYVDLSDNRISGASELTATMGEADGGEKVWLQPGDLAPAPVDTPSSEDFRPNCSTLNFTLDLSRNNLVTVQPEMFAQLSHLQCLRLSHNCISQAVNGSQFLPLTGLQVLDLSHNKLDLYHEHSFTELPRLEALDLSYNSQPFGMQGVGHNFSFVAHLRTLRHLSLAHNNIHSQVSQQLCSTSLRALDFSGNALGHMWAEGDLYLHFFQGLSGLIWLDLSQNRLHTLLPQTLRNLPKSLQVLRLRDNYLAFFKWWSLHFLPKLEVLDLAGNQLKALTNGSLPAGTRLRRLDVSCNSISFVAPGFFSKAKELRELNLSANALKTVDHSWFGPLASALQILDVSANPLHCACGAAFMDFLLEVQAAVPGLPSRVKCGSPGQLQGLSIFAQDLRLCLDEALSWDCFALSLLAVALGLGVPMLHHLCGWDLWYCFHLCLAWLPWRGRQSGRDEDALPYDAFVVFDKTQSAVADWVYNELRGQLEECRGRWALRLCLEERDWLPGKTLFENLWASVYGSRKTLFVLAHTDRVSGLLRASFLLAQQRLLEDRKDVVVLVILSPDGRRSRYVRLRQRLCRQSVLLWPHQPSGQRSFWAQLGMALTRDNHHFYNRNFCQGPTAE
# Experiment: TLR9 inhibition reporter assay (HEK-Blue cells, SEAP reporter)
# Assay type: cell-based
# Settings: HEK-Blue cells overexpressing human TLR9; stimulated with ODN2006 5 nM; 22 hour incubation; SEAP readout
# Description: (§1) TLR7/8/9 Inhibition Reporter Assays
# (§2) HEK-Blue™-cells (Invivogen) overexpressing human TLR7, TLR8 or TLR9 receptors were used for screening inhibitors of these receptors using an inducible SEAP (secreted embryonic alkaline phosphatase) reporter gene under the control of the […] minimal promoter fused to five NF-κB and AP-1-binding sites. Briefly, cells are seeded into Greiner 384 well plates (15000 cells per well for TLR7, 20,000 for TLR8 and 25,000 for TLR9) and then treated with test compounds in DMSO to yield a final dose response concentration range of 0.05 nM-50 μM. After a 30 minute compound pre-treatment at room temperature, the cells are then stimulated with a TLR7 ligand (gardiquimod at a final concentration of 7.5 μM), TLR8 ligand (R848 at a final concentration of 15.9 μM) or TLR9 ligand (ODN2006 at a final concentration of 5 nM) to activate NF-κB and AP-1 which induce the production of SEAP. After a 22 hour incubation at 37° C., 5% CO2, SEAP levels are determined with the addition of HEK-Blue™ Detection reagent (Invivogen), a cell culture medium that allows for detection of SEAP, according to manufacturer's specifications. The percent inhibition is determined as the % reduction in the HEK-Blue signal present in wells treated with agonist plus DMSO alone compared to wells treated with a known inhibitor.
row,Structure (SMILES),IC50 [nM]
1,"CC(C)CN1CCC(N2CCC(c3ccn4cc(-c5ccc(S(C)(=O)=O)cc5)nc4c3F)CC2)CC1 [Example 74, 8-fluoro-7-(1′-isobutyl-[1,4′-bipiperidin]-4-yl)-2-(4-(methylsulfonyl)phenyl)imidazo[1,2-a]pyridine]",55
2,"Cc1cc(C2CCN(C3CC4CCC(C3)N4CC(C)C)CC2)cn2cc(-c3ccc(S(C)(=O)=O)cc3)nc12 (single isomer, unassigned) [Example 86, 6-(1-(8-isobutyl-8-azabicyclo[3.2.1]octan-3-yl)piperidin-4-yl)-8-methyl-2-(4-(methylsulfonyl)phenyl)imidazo[1,2-a]pyridine]",102
3,"Cc1cc(C2CC3CCC(C2)N3C2CCN(C3CC3)CC2)cn2nc(-c3ccc(S(C)(=O)=O)cc3)nc12 (stereo not drawn) [Example 159, 6-(8-(1-cyclopropylpiperidin-4-yl)-8-azabicyclo[3.2.1]octan-3-yl)-8-methyl-2-(4-(methylsulfonyl)phenyl)-[1,2,4]triazolo[1,5-a]pyridine]",594
4,"Cc1cc(C2CCN(C3CC4CCC(C3)N4CC(C)C)CC2)cn2cc(-c3ccc(S(C)(=O)=O)cc3)nc12 (single isomer, unassigned) [Example 85, 6-(1-(8-isobutyl-8-azabicyclo[3.2.1]octan-3-yl)piperidin-4-yl)-8-methyl-2-(4-(methylsulfonyl)phenyl)imidazo[1,2-a]pyridine]",27
5,"COc1ccc(-c2nc3ccc(C4CC5CCC(C4)N5C4CCN(C(C)C)CC4)cn3n2)cc1OC (stereo not drawn) [Example 149, 2-(3,4-dimethoxyphenyl)-6-(8-(1-isopropylpiperidin-4-yl)-8-azabicyclo[3.2.1]octan-3-yl)-[1,2,4]triazolo[1,5-a]pyridine]",217
6,"Cc1cc(C2CCN(C3CC4CCC(C3)N4C3CCC3)CC2)cn2cc(-c3ccc(S(C)(=O)=O)cc3)nc12 (single isomer, unassigned) [Example 84, 6-(1-(8-cyclobutyl-8-azabicyclo[3.2.1]octan-3-yl)piperidin-4-yl)-8-methyl-2-(4-(methylsulfonyl)phenyl)imidazo[1,2-a]pyridine]",21

# Second part, the compound after the results:
row,IC50 [nM],Structure (SMILES)
1,456,"COCCN1CCN(c2ccc(-c3cc(C)c4nc(-c5ccc(OC)c(OC)c5)cn4c3)cc2)CC1 [Example 98, 2-(3,4-dimethoxyphenyl)-6-(4-(4-(2-methoxyethyl)piperazin-1-yl)phenyl)-8-methylimidazo[1,2-a]pyridine]"
2,390,"COc1ccc(-c2nc3ccc(C4CCN(C5CCN(C6CC6)CC5)CC4)cn3n2)cc1OC [Example 164, 6-(1′-cyclopropyl-[1,4′-bipiperidin]-4-yl)-2-(3,4-dimethoxyphenyl)-[1,2,4]triazolo[1,5-a]pyridine]"
3,104,"Cc1cc(C2CCN(C3CC4CCC(C3)N4CC3CCC3)CC2)cn2cc(-c3ccc(S(C)(=O)=O)cc3)nc12 (single isomer, unassigned) [Example 90, 6-(1-(8-(cyclobutylmethyl)-8-azabicyclo[3.2.1]octan-3-yl)piperidin-4-yl)-8-methyl-2-(4-(methylsulfonyl)phenyl)imidazo[1,2-a]pyridine]"
4,232,"COc1ccc(-c2nc3c(C)cc(C4CCN(C5CCN(C6CC6)CC5)CC4)cn3n2)cc1OC [Example 157, 6-(1′-cyclopropyl-[1,4′-bipiperidin]-4-yl)-2-(3,4-dimethoxyphenyl)-8-methyl-[1,2,4]triazolo[1,5-a]pyridine]"
5,20900,"CC1CC(c2ccc(N3CCN(C(C)C)CC3)cc2)Cn2nc(-c3ccc(S(C)(=O)=O)cc3)nc21 (stereo not drawn) [Example 150, 6-(4-(4-isopropylpiperazin-1-yl)phenyl)-8-methyl-2-(4-(methylsulfonyl)phenyl)-5,6,7,8-tetrahydro-[1,2,4]triazolo[1,5-a]pyridine]"
6,7330,"COc1ccc(-c2nc3n(n2)CC(C2CCC(N4CCN(C(C)C)CC4)CC2)CC3C)cc1OC (stereo not drawn) [Example 143, 2-(3,4-dimethoxyphenyl)-6-(4-(4-isopropylpiperazin-1-yl)cyclohexyl)-8-methyl-5,6,7,8-tetrahydro-[1,2,4]triazolo[1,5-a]pyridine]"
7,83,"Cc1cc(C2CCN(C3CCN(CC4CCC4)CC3)CC2)cn2cc(-c3ccc(S(C)(=O)=O)cc3)nc12 [Example 93, 6-(1′-(cyclobutylmethyl)-[1,4′-bipiperidin]-4-yl)-8-methyl-2-(4-(methylsulfonyl)phenyl)imidazo[1,2-a]pyridine]"

# Target: T2, human TLR7 (Homo sapiens, UniProt Q9NYK1)
# T2 sequence (Q9NYK1 27-1049): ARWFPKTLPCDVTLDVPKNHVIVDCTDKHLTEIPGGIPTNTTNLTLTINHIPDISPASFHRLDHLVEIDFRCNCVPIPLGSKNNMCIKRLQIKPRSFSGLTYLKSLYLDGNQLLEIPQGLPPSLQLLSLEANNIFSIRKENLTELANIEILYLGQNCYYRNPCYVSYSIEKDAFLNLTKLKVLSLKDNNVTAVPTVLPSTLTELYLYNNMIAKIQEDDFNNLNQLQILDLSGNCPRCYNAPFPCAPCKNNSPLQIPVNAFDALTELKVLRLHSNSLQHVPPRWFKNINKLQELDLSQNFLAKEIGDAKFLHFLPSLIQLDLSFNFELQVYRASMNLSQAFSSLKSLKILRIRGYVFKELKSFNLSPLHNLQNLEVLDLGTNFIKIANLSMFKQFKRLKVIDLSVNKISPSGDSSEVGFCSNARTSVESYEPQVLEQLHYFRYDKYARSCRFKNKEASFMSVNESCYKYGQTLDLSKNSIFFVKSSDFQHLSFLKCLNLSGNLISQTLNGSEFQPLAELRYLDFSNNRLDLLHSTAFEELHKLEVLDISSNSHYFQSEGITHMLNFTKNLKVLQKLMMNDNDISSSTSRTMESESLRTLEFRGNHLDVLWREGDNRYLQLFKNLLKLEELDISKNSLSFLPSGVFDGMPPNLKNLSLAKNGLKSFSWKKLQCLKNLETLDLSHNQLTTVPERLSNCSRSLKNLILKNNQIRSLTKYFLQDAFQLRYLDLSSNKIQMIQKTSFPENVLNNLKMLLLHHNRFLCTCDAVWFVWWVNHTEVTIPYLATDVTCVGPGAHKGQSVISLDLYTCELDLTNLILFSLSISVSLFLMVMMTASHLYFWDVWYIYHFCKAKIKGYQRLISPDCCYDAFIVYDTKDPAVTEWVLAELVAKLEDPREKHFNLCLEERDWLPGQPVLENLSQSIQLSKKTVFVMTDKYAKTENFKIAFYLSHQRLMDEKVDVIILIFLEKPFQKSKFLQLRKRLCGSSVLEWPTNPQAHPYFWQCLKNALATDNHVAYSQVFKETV
# Experiment: TLR7 inhibition reporter assay (HEK-Blue cells, SEAP reporter)
# Assay type: cell-based
# Settings: HEK-Blue cells overexpressing human TLR7; stimulated with gardiquimod 7.5 μM; 22 hour incubation; SEAP readout
# Description: as §1, §2
row,IC50 [nM],Structure (SMILES)
1,1000,"COCCN1CCN(c2ccc(-c3cc(C)c4nc(-c5ccc(OC)c(OC)c5)cn4c3)cc2)CC1 [Example 98, 2-(3,4-dimethoxyphenyl)-6-(4-(4-(2-methoxyethyl)piperazin-1-yl)phenyl)-8-methylimidazo[1,2-a]pyridine]"
2,2400,"CC(C)CN1CCC(N2CCC(c3ccn4cc(-c5ccc(S(C)(=O)=O)cc5)nc4c3F)CC2)CC1 [Example 74, 8-fluoro-7-(1′-isobutyl-[1,4′-bipiperidin]-4-yl)-2-(4-(methylsulfonyl)phenyl)imidazo[1,2-a]pyridine]"
